In US9561228B2 (Celgene Avilomics Research, Inc., priority 2013, dated 2017):

Experiments:
[1] = system: HCT116 cells (colorectal carcinoma); test: Inhibition of cancer cell proliferation, HCT116 (CellTiterGlo, 72 hours); assay type: cell-based; settings: Homo sapiens, HCT-116
Procedure, shortened: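 3000 cells per well exposed to 3-fold serial compound dilutions from 5,000 nM (two-fold solution, stock level) for 72 hours at 37° C. CellTiterGlo luminescence converted to cell number via a standard curve; percent inhibition vs untreated wells, GI50 by curve fit.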

[2] = system: HT-29 cells (colorectal adenocarcinoma); test: Inhibition of cancer cell proliferation, HT-29 (CellTiterGlo, 72 hours); assay type: cell-based; settings: Homo sapiens
Procedure, shortened: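 Proliferation over 72 h at 37° C was read by CellTiterGlo luminescence, translated to cell counts with a cell-density standard curve (390–50,000 cells). Compound added as 3-fold dilutions from a 5,000 nM two-fold stock to 3000 seeded HT-29 cells; GI50 from percent inhibition relative to untreated wells.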

Row | Compound | GI50 [1] | GI50 [2]
1 | C=CC(=O)Nc1cc(C)ccc1Nc1nc(Nc2cc(C(C)=O)ccc2C)ncc1C(F)(F)F [Compound I-84, N-(2-((2-((5-Acetyl-2-methylphenyl)amino)-5-(trifluoromethyl)pyrimidin-4-yl)amino)-5-methylphenyl)acrylamide] | 501 to 999 nM | 101 to 500 nM
2 | C=CC(=O)Nc1cc(C)ccc1Nc1nc(Nc2nc(OC)ncc2C(F)(F)F)ncc1C(F)(F)F [Compound I-355, N-(2-((2-((2-methoxy-5-(trifluoromethyl)pyrimidin-4-yl)amino)-5-(trifluoromethyl)pyrimidin-4-yl)amino)-5-methylphenyl)acrylamide] | > 1000 nM | 501 to 999 nM
3 | C=CC(=O)Nc1cc(C)ccc1Nc1nc(Nc2nc(OC)ncc2OC)ncc1C(F)(F)F [Compound I-349, N-(2-((2-((2,5-dimethoxypyrimidin-4-yl)amino)-5-(trifluoromethyl)pyrimidin-4-yl)amino)-5-methylphenyl)acrylamide] | > 1000 nM | 101 to 500 nM
4 | C=CC(=O)Nc1cc(C)ccc1Nc1nc(Nc2cc(OCCOC)ncc2C)ncc1C(F)(F)F [Compound I-359, N-(2-((2-((2-(2-methoxyethoxy)-5-methylpyridin-4-yl)amino)-5-(trifluoromethyl)pyrimidin-4-yl)amino)-5-methylphenyl)acrylamide] | > 1000 nM | 501 to 999 nM
5 | C=CC(=O)Nc1cc(C)ccc1Nc1nc(Nc2cc(OC)nc(OC)c2)ncc1C(F)(F)F [Compound I-96] | < 100 nM | < 100 nM
6 | C=CC(=O)Nc1cc(CN2CCN(C(C)=O)CC2)ccc1Nc1nc(Nc2cc(OC)ncc2C)ncc1C(F)(F)F [Compound I-381, N-(5-((4-acetylpiperazin-1-yl)methyl)-2-((2-((2-methoxy-5-methylpyridin-4-yl)amino)-5-(trifluoromethyl)pyrimidin-4-yl)amino)phenyl)acrylamide] | 101 to 500 nM | 101 to 500 nM
7 | C=CC(=O)Nc1cc(C)ccc1Nc1nc(Nc2cc(N[C@H]3CC[C@](C)(O)CC3)nc(OC)c2)ncc1C(F)(F)F [Compound I-327, N-(2-((2-((2-((trans-4-hydroxy-4-methylcyclohexyl)amino)-6-methoxypyridin-4-yl)amino)-5-(trifluoromethyl)pyrimidin-4-yl)amino)-5-methylphenyl)acrylamide] | < 100 nM | 

Results, then the compound that gave them:

Row | GI50 [1] | GI50 [2] | Compound
8 | 101 to 500 nM | 101 to 500 nM | C=CC(=O)Nc1cc(C)c(F)cc1Nc1nc(Nc2nc(OC)ncc2Cl)ncc1C(F)(F)F [Compound I-374, N-(2-((2-((5-chloro-2-methoxypyrimidin-4-yl)amino)-5-(trifluoromethyl)pyrimidin-4-yl)amino)-4-fluoro-5-methylphenyl)acrylamide]
9 | > 1000 nM | > 1000 nM | C=CC(=O)Nc1cc(C)ccc1Nc1nc(Nc2nc(OC)ccc2Cl)ncc1C(F)(F)F [Compound I-360, N-(2-((2-((3-chloro-6-methoxypyridin-2-yl)amino)-5-(trifluoromethyl)pyrimidin-4-yl)amino)-5-methylphenyl)acrylamide]
10 | 101 to 500 nM | < 100 nM | C=CC(=O)Nc1cc(CN2CCN(C(=O)c3cccnc3)CC2)ccc1Nc1nc(Nc2cc(OC)ncc2C)ncc1C(F)(F)F [Compound I-389, N-(2-((2-((2-methoxy-5-methylpyridin-4-yl)amino)-5-(trifluoromethyl)pyrimidin-4-yl)amino)-5-((4-nicotinoylpiperazin-1-yl)methyl)phenyl)acrylamide]
11 | 101 to 500 nM | < 100 nM | C=CC(=O)Nc1cc(CN2CCN(C(=O)c3cnccn3)CC2)ccc1Nc1nc(Nc2cc(OC)ncc2C)ncc1C(F)(F)F [Compound I-390, N-(2-((2-((2-methoxy-5-methylpyridin-4-yl)amino)-5-(trifluoromethyl)pyrimidin-4-yl)amino)-5-((4-(pyrazine-2-carbonyl)piperazin-1-yl)methyl)phenyl)acrylamide]
